Data taken from US10131652B2, “Pyrimidinyloxy benzene derivatives as herbicides” (E. I. DU PONT DE NEMOURS AND COMPANY, priority 2014, dated 2018).
Like-named read-outs stand apart in the source and are kept apart here.

Columns and labels:
Experiment in all cases: Test D pre-/postemergence plant response
Assay type in all cases: in vivo
[1] = test system: barnyardgrass (Echinochloa crus-galli); conditions: Echinochloa crus-galli; for pest or weed control at 16 g/ha: 16 g ai/ha; for pest or weed control at 31 g/ha: 31 g ai/ha; for pest or weed control at 62 g/ha: 62 g ai/ha; for pest or weed control at 125 g/ha: 125 g ai/ha
From the text: (§1) Seeds of plant species selected from blackgrass (Alopecurus myosuroides), Italian ryegrass (Lolium multiflorum), winter wheat (Triticum aestivum), galium (catchweed bedstraw, Galium aparine), corn (Zea mays), large (Lg) crabgrass (Digitaria sanguinalis), giant foxtail (Setaria faberii), johnsongrass (Sorghum halepense), lambsquarters (Chenopodium album), morningglory (Ipomoea coccinea), yellow nutsedge (Cyperus esculentus), pigweed (Amaranthus retroflexus), ragweed (common ragweed, Ambrosia elatior), soybean (Glycine max), bamyardgrass (Echinochloa crus-galli), oilseed rape (Brassica napus), waterhemp (common waterhemp, Amaranthus rudis), and velvetleaf (Abutilon theophrasti) were planted into a blend of loam soil and sand and treated preemergence with test chemicals formulated in a non-phytotoxic solvent mixture which included a surfactant. At the same time, plants selected from these crop and weed species and also kochia (Kochia scoparia), wild oat (Avena fatua), and chickweed (common chickweed, Stellaria media) were planted in pots containing Redi-Earth® planting medium (Scotts Company, 14111 Scottslawn Road, Marysville, Ohio 43041) comprising spaghnum peat moss, vermiculite, wetting agent and starter nutrients and treated with postemergence applications of test chemicals formulated in the same manner. Plants ranged in height from 2 to 18 cm (1- to 4-leaf stage) for postemergence treatments. Treated plants and controls were maintained in a greenhouse for 13 to 15 days, after which time all species were compared to controls and visually evaluated. Plant response ratings, summarized in Table D, are based on a scale of 0 to 100 where 0 is no effect and 100 is complete control. A dash (-) response means no test result.

[2] = test system: waterhemp (common waterhemp, Amaranthus rudis); conditions: Amaranthus tuberculatus; for pest or weed control at 31 g/ha: 31 g ai/ha; for pest or weed control at 62 g/ha: 62 g ai/ha; for pest or weed control at 125 g/ha: 125 g ai/ha
From the text: as §1

[3] = test system: giant foxtail (Setaria faberii); conditions: Setaria faberi; for pest or weed control at 16 g/ha: 16 g ai/ha; for pest or weed control at 31 g/ha: 31 g ai/ha; for pest or weed control at 62 g/ha: 62 g ai/ha; for pest or weed control at 125 g/ha: 125 g ai/ha
From the text: as §1

[4] = test system: Italian ryegrass (Lolium multiflorum); conditions: Lolium multiflorum; for pest or weed control at 31 g/ha: 31 g ai/ha; for pest or weed control at 62 g/ha: 62 g ai/ha; for pest or weed control at 125 g/ha: 125 g ai/ha
From the text: as §1

[5] = test system: morningglory (Ipomoea coccinea); conditions: Ipomoea; for pest or weed control at 31 g/ha: 31 g ai/ha; for pest or weed control at 62 g/ha: 62 g ai/ha; for pest or weed control at 125 g/ha: 125 g ai/ha
From the text: as §1

[6] = test system: pigweed (Amaranthus retroflexus); conditions: Amaranthus retroflexus; for pest or weed control at 31 g/ha: 31 g ai/ha; for pest or weed control at 62 g/ha: 62 g ai/ha; for pest or weed control at 125 g/ha: 125 g ai/ha
From the text: as §1

[7] = test system: corn (Zea mays); conditions: Zea mays, post-emergence, Postemergence
From the text: as §1

[8] = post-emergence, Postemergence, scale 0 to 100 (0 no effect, 100 complete control), read-out: Barnyardgrass plant response rating
[9] = post-emergence, Postemergence, scale 0 to 100, 0 no effect, 100 complete control, read-out: Plant response rating, Barnyardgrass
[10] = pre-emergence, Preemergence, scale 0 to 100 (0 no effect, 100 complete control), read-out: Plant response rating, Barnyardgrass
[11] = post-emergence, Postemergence, scale 0 to 100, 0 no effect, 100 complete control, read-out: Plant response rating, Waterhemp
[12] = pre-emergence, Preemergence, scale 0 to 100 (0 no effect, 100 complete control), read-out: Plant response rating, Waterhemp
[13] = post-emergence, Postemergence, scale 0 to 100 (0 no effect, 100 complete control), read-out: Foxtail, Giant plant response rating
[14] = post-emergence, Postemergence, scale 0 to 100, 0 no effect, 100 complete control, read-out: Plant response rating, Foxtail, Giant
[15] = pre-emergence, Preemergence, scale 0 to 100 (0 no effect, 100 complete control), read-out: Plant response rating, Foxtail, Giant
[16] = post-emergence, Postemergence, scale 0 to 100, 0 no effect, 100 complete control, read-out: Plant response rating, Ryegrass, Italian
[17] = pre-emergence, Preemergence, scale 0 to 100 (0 no effect, 100 complete control), read-out: Plant response rating, Ryegrass, Italian
[18] = post-emergence, Postemergence, scale 0 to 100, 0 no effect, 100 complete control, read-out: Plant response rating, Morningglory
[19] = pre-emergence, Preemergence, scale 0 to 100 (0 no effect, 100 complete control), read-out: Plant response rating, Morningglory
[20] = post-emergence, Postemergence, scale 0 to 100, 0 no effect, 100 complete control, read-out: Plant response rating, Pigweed
[21] = pre-emergence, Preemergence, scale 0 to 100 (0 no effect, 100 complete control), read-out: Plant response rating, Pigweed

Fc1cccc(Oc2ncc(Cl)cn2)c1-c1cc(C(F)(F)F)on1 [Compound 168, 5-chloro-2-[2-[5-(trifluoromethyl)-3-isoxazolyl]-3-fluorophenoxy]pyrimidine]
pest or weed control at 16 g/ha [1, 8]: 5%
pest or weed control at 31 g/ha [1, 8]: 5%
pest or weed control at 62 g/ha [1, 9]: 10%
pest or weed control at 125 g/ha [1, 9]: 75%
pest or weed control at 125 g/ha ([1]; pre-emergence, Preemergence, read-out: Plant response rating (scale 0 to 100), Barnyardgrass): 100%
pest or weed control at 16 g/ha [1, 10]: 35%
pest or weed control at 31 g/ha [1, 10]: 75%
pest or weed control at 62 g/ha [1, 10]: 100%
pest or weed control at 31 g/ha ([2]; post-emergence, Postemergence, scale 0 to 100 (0 no effect, 100 complete control), read-out: Waterhemp plant response rating): 90%
pest or weed control at 62 g/ha [2, 11]: 98%
pest or weed control at 125 g/ha [2, 11]: 98%
pest or weed control at 125 g/ha ([2]; pre-emergence, Preemergence, read-out: Plant response rating (scale 0 to 100), Waterhemp): 100%
pest or weed control at 16 g/ha ([2]; pre-emergence, Preemergence, 16 g ai/ha, scale 0 to 100 (0 no effect, 100 complete control), read-out: Plant response rating, Waterhemp): 100%
pest or weed control at 31 g/ha [2, 12]: 100%
pest or weed control at 62 g/ha [2, 12]: 100%
pest or weed control at 16 g/ha [3, 13]: 35%
pest or weed control at 31 g/ha [3, 13]: 35%
pest or weed control at 62 g/ha [3, 14]: 40%
pest or weed control at 125 g/ha [3, 14]: 60%
pest or weed control at 125 g/ha ([3]; pre-emergence, Preemergence, read-out: Plant response rating (scale 0 to 100), Foxtail, Giant): 100%
pest or weed control at 16 g/ha [3, 15]: 100%
pest or weed control at 31 g/ha [3, 15]: 100%
pest or weed control at 62 g/ha [3, 15]: 100%
pest or weed control at 31 g/ha ([4]; post-emergence, Postemergence, scale 0 to 100 (0 no effect, 100 complete control), read-out: Ryegrass, Italian plant response rating): 5%
pest or weed control at 62 g/ha [4, 16]: 5%
pest or weed control at 125 g/ha [4, 16]: 15%
pest or weed control at 125 g/ha ([4]; pre-emergence, Preemergence, read-out: Plant response rating (scale 0 to 100), Ryegrass, Italian): 95%
pest or weed control at 16 g/ha ([4]; pre-emergence, Preemergence, 16 g ai/ha, scale 0 to 100 (0 no effect, 100 complete control), read-out: Plant response rating, Ryegrass, Italian): 70%
pest or weed control at 31 g/ha [4, 17]: 95%
pest or weed control at 62 g/ha [4, 17]: 95%
pest or weed control at 31 g/ha ([5]; post-emergence, Postemergence, scale 0 to 100 (0 no effect, 100 complete control), read-out: Morningglory plant response rating): 85%
pest or weed control at 62 g/ha [5, 18]: 85%
pest or weed control at 125 g/ha [5, 18]: 85%
pest or weed control at 125 g/ha ([5]; pre-emergence, Preemergence, read-out: Plant response rating (scale 0 to 100), Morningglory): 100%
pest or weed control at 16 g/ha ([5]; pre-emergence, Preemergence, 16 g ai/ha, scale 0 to 100 (0 no effect, 100 complete control), read-out: Plant response rating, Morningglory): 5%
pest or weed control at 31 g/ha [5, 19]: 70%
pest or weed control at 62 g/ha [5, 19]: 80%
pest or weed control at 31 g/ha ([6]; post-emergence, Postemergence, scale 0 to 100 (0 no effect, 100 complete control), read-out: Pigweed plant response rating): 85%
pest or weed control at 62 g/ha [6, 20]: 95%
pest or weed control at 125 g/ha [6, 20]: 98%
pest or weed control at 125 g/ha ([6]; pre-emergence, Preemergence, read-out: Plant response rating (scale 0 to 100), Pigweed): 100%
pest or weed control at 16 g/ha ([6]; pre-emergence, Preemergence, 16 g ai/ha, scale 0 to 100 (0 no effect, 100 complete control), read-out: Plant response rating, Pigweed): 85%
pest or weed control at 31 g/ha [6, 21]: 100%
pest or weed control at 62 g/ha [6, 21]: 100%
plant injury at 16 g/ha ([7]; 16 g ai/ha, scale 0 to 100 (0 no effect, 100 complete control), read-out: Corn plant response rating): 5%
plant injury at 31 g/ha ([7]; 31 g ai/ha, scale 0 to 100 (0 no effect, 100 complete control), read-out: Corn plant response rating): 5%
Corn plant response rating (crop injury, 0 = no effect, 100 = complete kill) at 62 g/ha ([7]; 62 g ai/ha, scale 0 to 100, 0 no effect, 100 complete control): 10%
Corn plant response rating (crop injury, 0 = no effect, 100 = complete kill) at 125 g/ha ([7]; 125 g ai/ha, scale 0 to 100, 0 no effect, 100 complete control): 20%
